# Laboratory results taken from patent US9296757B2, “Substituted benzothienopyrimidines” (BAYER PHARMA AKTIENGESELLSCHAFT, priority 2012, dated 2016).
# Biological target: human full-length MKNK1 (Homo sapiens (Human), UniProt Q9BUB5, T344D)
# Experiment: MKNK1 kinase high ATP assay (TR-FRET)
# Type: biochemical
# Details: high ATP (2 mM final), 15 min preincubation with enzyme
# Outline: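 GST-tagged full-length MKNK1 (T344D), insect-cell expressed, preincubated 15 min at 22 °C with compound, then reacted 30 min at 22 °C with 2 mM ATP and 0.06 μM biotinylated peptide in HEPES pH 7.5 buffer (final concentrations). Phospho-peptide detected by TR-FRET (665/620 nm ratio), normalised to no-inhibitor and no-enzyme controls.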
# human full-length MKNK1, sequence (Q9BUB5 other isoform, or with tags, fused parts or gaps T344D): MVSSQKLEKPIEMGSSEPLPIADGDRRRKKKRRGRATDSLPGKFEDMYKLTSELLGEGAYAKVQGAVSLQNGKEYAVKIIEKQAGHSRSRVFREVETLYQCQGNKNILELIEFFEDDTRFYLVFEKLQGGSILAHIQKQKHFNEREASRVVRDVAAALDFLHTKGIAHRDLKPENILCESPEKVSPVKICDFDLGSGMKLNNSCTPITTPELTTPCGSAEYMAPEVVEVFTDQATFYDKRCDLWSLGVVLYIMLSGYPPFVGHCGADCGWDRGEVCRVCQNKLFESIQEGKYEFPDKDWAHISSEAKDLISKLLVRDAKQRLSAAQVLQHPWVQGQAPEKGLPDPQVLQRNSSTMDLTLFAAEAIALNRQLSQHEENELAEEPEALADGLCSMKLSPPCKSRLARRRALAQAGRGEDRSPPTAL
row,SMILES,IC50
1,"O=C(C1CCc2c(sc3ncnc(Nc4ccc5[nH]c(=O)sc5c4)c23)C1)N1CC(N2CCCCC2)C1 (racemic) [Example 79, (RS)-6-[(7-{[3-(piperidin-1-yl)azetidin-1-yl]carbonyl}-5,6,7,8-tetrahydro[1]benzothieno[2,3-d]pyrimidin-4-yl)amino]-1,3-benzothiazol-2(3H)-one]",0.038 µM
2,"CN(CCN1CCOCC1)C(=O)C1CCc2c(sc3ncnc(Nc4ccc5[nH]c(=O)sc5c4)c23)C1 (racemic) [Example 82, (RS)-N-methyl-N-[2-(morpholin-4-yl)ethyl]-4-[(2-oxo-2,3-dihydro-1,3-benzothiazol-6-yl)amino]-5,6,7,8-tetrahydro[1]benzothieno[2,3-d]pyrimidine-7-carboxamide]",0.046 µM
3,"O=C(C1CCc2c(sc3ncnc(Nc4ccc5[nH]c(=O)sc5c4)c23)C1)N1CC2(COC2)C1 (racemic) [Example 83, (RS)-6-{[7-(2-oxa-6-azaspiro[3.3]hept-6-ylcarbonyl)-5,6,7,8-tetrahydro[1]benzothieno[2,3-d]pyrimidin-4-yl]amino}-1,3-benzothiazol-2(3H)-one]",0.052 µM
4,"COC1CCCN(C(=O)C2CCc3c(sc4ncnc(Nc5ccc6[nH]c(=O)sc6c5)c34)C2)C1 (racemic) [Example 84, 6-{[(7RS)-7-{[(3RS)-3-methoxypiperidin-1-yl]carbonyl}-5,6,7,8-tetrahydro[1]benzothieno[2,3-d]pyrimidin-4-yl]amino}-1,3-benzothiazol-2(3H)-one]",0.03 µM
5,"COc1cc2[nH]c(=O)sc2cc1Nc1ncnc2sc3c(c12)CCC(C(=O)N(C)C)C3 (racemic) [Example 85, (RS)-4-[(5-methoxy-2-oxo-2,3-dihydro-1,3-benzothiazol-6-yl)amino]-N,N-dimethyl-5,6,7,8-tetrahydro[1]benzothieno[2,3-d]pyrimidine-7-carboxamide]",0.004 µM
6,"CCN(C(=O)C1CCc2c(sc3ncnc(Nc4cc5sc(=O)[nH]c5cc4OC)c23)C1)C(C)C (racemic) [Example 86, (RS)—N-Ethyl-N-isopropyl-4-[(5-methoxy-2-oxo-2,3-dihydro-1,3-benzothiazol-6-yl)amino]-5,6,7,8-tetrahydro[1]benzothieno[2,3-d]pyrimidine-7-carboxamide]",0.003 µM
7,"CCCN(CCOC)C(=O)C1CCc2c(sc3ncnc(Nc4cc5sc(=O)[nH]c5cc4OC)c23)C1 (racemic) [Example 87, (RS)—N-(2-Methoxyethyl)-4-[(5-methoxy-2-oxo-2,3-dihydro-1,3-benzothiazol-6-yl)amino]-N-propyl-5,6,7,8-tetrahydro[1]benzothieno[2,3-d]pyrimidine-7-carboxamide]",0.002 µM
8,"CCCCN(CC#N)C(=O)C1CCc2c(sc3ncnc(Nc4cc5sc(=O)[nH]c5cc4OC)c23)C1 (racemic) [Example 88, (RS)—N-Butyl-N-(cyanomethyl)-4-[(5-methoxy-2-oxo-2,3-dihydro-1,3-benzothiazol-6-yl)amino]-5,6,7,8-tetrahydro[1]benzothieno[2,3-d]pyrimidine-7-carboxamide]",0.001 µM
9,"COc1cc2[nH]c(=O)sc2cc1Nc1ncnc2sc3c(c12)CCC(C(=O)O)C3 (centres unmarked) [Example 33, 4-[(5-Methoxy-2-oxo-2,3-dihydro-1,3-benzothiazol-6-yl)amino]-5,6,7,8-tetrahydro[1]benzothieno[2,3-d]pyrimidine-7-carboxylic acid]",0.042 µM
10,"O=C(C1CCc2c(sc3ncnc(Nc4ccc5[nH]c(=O)sc5c4)c23)C1)N1CCN(Cc2ccccc2)CC1 (centres unmarked) [Example 38, 6-({7-[(4-benzylpiperazin-1-yl)carbonyl]-5,6,7,8-tetrahydro[1]benzothieno[2,3-d]pyrimidin-4-yl}amino)-1,3-benzothiazol-2(3H)-one]",0.044 µM

# Second part, the compound after the results:
row,IC50,SMILES
1,0.042 µM,"CN(C(=O)C1CCc2c(sc3ncnc(Nc4ccc5[nH]c(=O)sc5c4)c23)C1)C1CCOC(C)(C)C1 (racemic) [Example 80, (RS)-N-(2,2-dimethyltetrahydro-2H-pyran-4-yl)-N-methyl-4-[(2-oxo-2,3-dihydro-1,3-benzothiazol-6-yl)amino]-5,6,7,8-tetrahydro[1]benzothieno[2,3-d]pyrimidine-7-carboxamide]"
2,0.034 µM,"CN1CCN(C(=O)C2CCc3c(sc4ncnc(Nc5ccc6[nH]c(=O)sc6c5)c34)C2)CC1CCO (racemic) [Example 81, 6-{[(7RS)-7-{[(3RS)-3-(2-hydroxyethyl)-4-methylpiperazin-1-yl]carbonyl}-5,6,7,8-tetrahydro[1]benzothieno[2,3-d]pyrimidin-4-yl]amino}-1,3-benzothiazol-2(3H)-one]"
3,0.0019 µM,"CCCCN(C)C(=O)C1CCc2c(sc3ncnc(Nc4cc5sc(=O)[nH]c5cc4OC)c23)C1 (racemic) [Example 89, (RS)—N-Butyl-4-[(5-methoxy-2-oxo-2,3-dihydro-1,3-benzothiazol-6-yl)amino]-N-methyl-5,6,7,8-tetrahydro[1]benzothieno[2,3-d]pyrimidine-7-carboxamide]"
4,0.001 µM,"CCN(CCOC)C(=O)C1CCc2c(sc3ncnc(Nc4cc5sc(=O)[nH]c5cc4OC)c23)C1 (racemic) [Example 90, (RS)—N-Ethyl-N-(2-methoxyethyl)-4-[(5-methoxy-2-oxo-2,3-dihydro-1,3-benzothiazol-6-yl)amino]-5,6,7,8-tetrahydro[1]benzothieno[2,3-d]pyrimidine-7-carboxamide]"
5,0.0387 µM,"N#CC1CN(C(=O)C2CCc3c(sc4ncnc(Nc5ccc6[nH]c(=O)sc6c5)c34)C2)C1 (racemic) [Example 91, (RS)-1-({4-[(2-Oxo-2,3-dihydro-1,3-benzothiazol-6-yl)amino]-5,6,7,8-tetrahydro[1]benzothieno[2,3-d]pyrimidin-7-yl}carbonyl)azetidine-3-carbonitrile]"
6,0.0006 µM,"COc1cc2[nH]c(=O)sc2cc1Nc1ncnc2sc3c(c12)CCC(C(=O)N(CCN(C)C)Cc1ccccc1)C3 (racemic) [Example 92, (RS)—N-Benzyl-N-[2-(dimethylamino)ethyl]-4-[(5-methoxy-2-oxo-2,3-dihydro-1,3-benzothiazol-6-yl)amino]-5,6,7,8-tetrahydro[1]benzothieno[2,3-d]pyrimidine-7-carboxamide]"
7,0.0007 µM,"COCCN(CCOC)C(=O)C1CCc2c(sc3ncnc(Nc4cc5sc(=O)[nH]c5cc4OC)c23)C1 (racemic) [Example 93, (RS)—N,N-bis(2-methoxyethyl)-4-[(5-methoxy-2-oxo-2,3-dihydro-1,3-benzothiazol-6-yl)amino]-5,6,7,8-tetrahydro[1]benzothieno[2,3-d]pyrimidine-7-carboxamide]"
